{"source": "patent US11919867B1", "about": "“5-(4,5-bis(4-bromophenyl)-2-(4-methoxyphenyl)-1H-imidazol-1-yl)pentanoic acid as an antimicrobial compound” (KING FAISAL UNIVERSITY, priority 2023, dated 2024)", "type_in_all_cases": "cell-based", "key": {"[1]": {"tested_on": "Pseudomonas aeruginosa", "assay": "Agar plate disc-diffusion, antibacterial inhibition zone", "conditions": "nutrient agar, 37° C., 48 hours, DMSO control zone subtracted", "method": "(§1) The agar plate disc-diffusion method was applied. […] The discs were then placed onto the surface of agar plates (nutrient agar for bacteria and Sabouraud's dextrose agar for fungi) seeded with the test organism. Each plate contained 15 mL of the agar medium, previously seeded with 0.2 mL of the broth culture of each organism pregrown for 18 hours. The plates were incubated at 37° C. for 48 hours, and 72 hours for fungi. The inhibition zones was measured in mm. Discs impregnated with DMSO were used as a control, and its inhibition zone was subtracted from the tested compound actual inhibition zone."}, "[2]": {"tested_on": "Escherichia coli", "assay": "Agar plate disc-diffusion, antibacterial inhibition zone", "conditions": "nutrient agar, 37° C., 48 hours, DMSO control zone subtracted", "method": "as §1"}, "[3]": {"tested_on": "Bacillus cereus", "assay": "Agar plate disc-diffusion, antibacterial inhibition zone", "conditions": "nutrient agar, 37° C., 48 hours, DMSO control zone subtracted", "method": "as §1"}, "[4]": {"tested_on": "Staphylococcus aureus", "assay": "Agar plate disc-diffusion, antibacterial inhibition zone", "conditions": "nutrient agar, 37° C., 48 hours, DMSO control zone subtracted", "method": "as §1"}, "[5]": {"tested_on": "Chrysosporium keratinophilum", "assay": "Agar plate disc-diffusion, antifungal inhibition zone", "conditions": "Sabouraud's dextrose agar, 72 hours, DMSO control zone subtracted", "method": "as §1"}, "[6]": {"tested_on": "Aspergillus flavus", "assay": "Agar plate disc-diffusion, antifungal inhibition zone", "conditions": "Sabouraud's dextrose agar, 72 hours, DMSO control zone subtracted", "method": "as §1"}, "[7]": {"conditions": "A = concentration of comp. = 10,000 μL"}, "[8]": {"conditions": "B = concentration of comp. = 30,000 μL"}, "[9]": {"conditions": "C = concentration of comp. = 50,000 μL"}}}
{"smiles": "COc1ccc(-c2nc(-c3ccc(Br)cc3)c(-c3ccc(Br)cc3)n2CCCCC(=O)O)cc1", "note": "[V, 5-(4,5-bis(4-bromophenyl)-2-(4-methoxyphenyl)-1H-imidazol-1-yl)pentanoic acid]", "values": [{"measurement": "inhibition zone, Pseudomonas aeruginosa, A", "setting": "[1]; [7]", "value": 26, "unit": "mm"}, {"measurement": "inhibition zone, Pseudomonas aeruginosa, B", "setting": "[1]; [8]", "value": 29, "unit": "mm"}, {"measurement": "inhibition zone, Pseudomonas aeruginosa, C", "setting": "[1]; [9]", "value": 40, "unit": "mm"}, {"measurement": "inhibition zone, Escherichia coli, A", "setting": "[2]; [7]", "value": 30, "unit": "mm"}, {"measurement": "inhibition zone, Escherichia coli, B", "setting": "[2]; [8]", "value": 40, "unit": "mm"}, {"measurement": "inhibition zone, Escherichia coli, C", "setting": "[2]; [9]", "value": 55, "unit": "mm"}, {"measurement": "inhibition zone, Bacillus Cereus, A", "setting": "[3]; [7]", "value": 28, "unit": "mm"}, {"measurement": "inhibition zone, Bacillus Cereus, B", "setting": "[3]; [8]", "value": 29, "unit": "mm"}, {"measurement": "inhibition zone, Bacillus Cereus, C", "setting": "[3]; [9]", "value": 39, "unit": "mm"}, {"measurement": "inhibition zone, Staphylococcus aureus, A", "setting": "[4]; [7]", "value": 15, "unit": "mm"}, {"measurement": "inhibition zone, Staphylococcus aureus, B", "setting": "[4]; [8]", "value": 22, "unit": "mm"}, {"measurement": "inhibition zone, Staphylococcus aureus, C", "setting": "[4]; [9]", "value": 31, "unit": "mm"}, {"measurement": "inhibition zone, Chrysosporium keratinophilum, A", "setting": "[5]; [7]", "value": 26, "unit": "mm"}, {"measurement": "inhibition zone, Chrysosporium keratinophilum, B", "setting": "[5]; [8]", "value": 27, "unit": "mm"}, {"measurement": "inhibition zone, Chrysosporium keratinophilum, C", "setting": "[5]; [9]", "value": 45, "unit": "mm"}, {"measurement": "inhibition zone, Aspergillus flavus, A", "setting": "[6]; [7]", "value": 22, "unit": "mm"}, {"measurement": "inhibition zone, Aspergillus flavus, B", "setting": "[6]; [8]", "value": 25, "unit": "mm"}, {"measurement": "inhibition zone, Aspergillus flavus, C", "setting": "[6]; [9]", "value": 33, "unit": "mm"}]}
